Reference: patent publication US6143719A, “Bradykinin analogs as selective thrombin inhibitors” (The Regents of the University of Michigan, priority 1996, dated 2000)
Where two headings read alike, the source gives them in different places. Ends that are not written are not given here.

Legend:
platelets = assay type: cell-based, human; conditions: washed platelets, α-thrombin 1 nM
Method: Fresh whole blood was collected and mixed with 0.013 M sodium citrate and platelet-rich plasma was prepared according to the method of Meloni et al., J. Biol. Chem. 266, 6786, 1991. Washed platelets were prepared by gel filtration over Sepharose 2B columns in Hepes-Tyrode's buffer (0.137 M NaCl, 3 mM KCl, 0.4 mM Na H2 PO4, 12 mM NaHCO3, 1 mM MgCl2, 14.7 mM Hepes containing 20 mM glucose and 0.2% bovine serum albumin, pH 7.35). Platelets for aggregation and secretion studies were incubated according to the method of Schmaier et al., Blood 56, 1013, 1980 with 5-[^14 C]hydroxytryptamine for 30 min at 37° C. The washed platelets (2×10^8 /ml, final concentration radiolabeled with 5-[^14 C]hydroxytryptamine) were added to a cuvette of an aggregometer (Chronolog Corp., Havertown, Pa.), standardized using the protocol of Meloni et al., supra. After the addition of ZnCl2, final concentration 50 μM, purified HK (1 μM) or various concentrations of the peptides (0.1 to 3 mM) or buffer alone was added to the cuvette. Once the baseline stabilized, α-thrombin [0.125 U/ml (1 nM) final concentration] was then added to initiate platelet activation. Stirred platelets were allowed to incubate with o-thrombin and additions for 1 min. In other experiments, platelets were stimulated with TRAP (0.625 to 2.5 μM), ADP (1-5 μM)(Sigma), collagen (1.25 μg/ml) (Horm, Munich, Germany), or U-46619 (1 μM)(Calbiochem Behring, San Diego, Calif.). Additional experiments were performed with washed platelets stimulated with γ-thrombin (1 nM) in the presence of human fibrinogen (100 mg/dl). Both γ-thrombin and human fibrinogen were purchased from Enzyme Research Laboratories, South Bend, Ind. At the conclusion of the incubation, the entire platelet sample was centrifuged at 10,900 xg (Model E, Beckman Instruments, Palo Alto, Calif.) over a 0.135 mM formaldehyde, 5 mM EDTA solution (1 part of formaldehyde-EDTA to 4 parts of platelet suspension) and stored on ice until an aliquot of the supernatant was assayed for 5-[^14 C]hydroxytryptamine secretion. Percent secretion was determined by the ratio of the loss of 5-[^14 C]hydroxytryptamine in the supernatant of the agonist-treated specimen to the loss of 5-[^14 C]hydroxytryptamine in the supernatant of the platelet lysate after the value of the control supernatant (i.e., the level of 5-[^14 C]hydroxytryptamine in a unstimulated sample) was subtracted from both.

human platelets = assay type: cell-based
Method: The cytoplasmic free Ca^2+ concentration ([Ca^2+ ]i) was measured using the fluorescent Ca^2 + indicator fura-2 (Molecular Probes, Inc., Eugene, Oreg.). Gel filtered platelets in Hepes-Tyrode's buffer were loaded with fura-2 by incubation at 37° C. with 1 μM fura-2/acetoxymethyl ester for 45 min according to the method of Rasmussen et al., J. Biol. Chem. 268, 14322 (1993). The labeled platelets were then re-gel filtered to remove any excess probe. Aliquots of the labeled platelet suspension were transferred into a quartz cuvette with a magnetic stirrer, which was then placed in a thermostatically controlled chamber at 37° C. in a fluorescence spectrophotometer (Dual Wave Length Shimazdu SP5000 Spectrofluorometer, Shimazdu USA, Pittsburgh, Pa.). Reagents were directly added to the cuvette. The excitation wave lengths varied between 340 and 380 nm. The fluorescence was measured by recording emitted light at 510 nm as reported by Fisher et al, Mol. Pharm. 35, 195 (1989). The minimum emission was determined on a 20 mM digitonin, 10 mM EGTA solubilized platelet sample; maximum emission was determined on the same sample with 10 mM Ca^2+ added. The intraplatelet free Ca^2+ concentration was calculated by the method of Grykiewicz et al., J. Biol. Chem. 260, 3440 (1985). The ratio of the fluorescence readings was calculated as R=340/380 nm and processed according to the equation [Ca^2+ ]i =KD ((R-Rmin)/Rmax -R))(Sf2 /Sb2) to determine the intraplatelet free Ca^2+ concentration. The KD for fura-2 was assumed to be 224 nM. Rmax and Rmin are the maximum and minimum fluorescence ratios measured at the end of the experiment, respectively; Sf2 and Sb2 are the fluorescence values at 380 nm in the absence and presence of saturating [Ca^2+ ], respectively.

With RPPGFSPFR [BK, bradykinin] the IC50 (platelets; read-out: IC50 AGGREGATION (inhibition of α-thrombin-induced platelet aggregation)) was 250 µM, the IC50 (platelets; read-out: IC50 SECRETION (inhibition of α-thrombin-induced platelet secretion)) was 1000 µM and the “inhibition of α-thrombin-induced calcium mobilization” value (human platelets; FIG. 2, concentration not given) was “block”. It also gave an IC50 (human platelets; gel filtered platelets, read-out: IC50, α-thrombin-induced Ca2+ mobilization) of 230 µM.
